Measurements published in BindingDB's records for doi:10.1038/347146a0 (U. 109, 1990).

Assays:
[1] = target: D(3) dopamine receptor (Rattus norvegicus, UniProt P19020)
[2] = target: D(2) dopamine receptor (Rattus norvegicus, UniProt P61169)
D(2) dopamine receptor, sequence (P61169 whole entry): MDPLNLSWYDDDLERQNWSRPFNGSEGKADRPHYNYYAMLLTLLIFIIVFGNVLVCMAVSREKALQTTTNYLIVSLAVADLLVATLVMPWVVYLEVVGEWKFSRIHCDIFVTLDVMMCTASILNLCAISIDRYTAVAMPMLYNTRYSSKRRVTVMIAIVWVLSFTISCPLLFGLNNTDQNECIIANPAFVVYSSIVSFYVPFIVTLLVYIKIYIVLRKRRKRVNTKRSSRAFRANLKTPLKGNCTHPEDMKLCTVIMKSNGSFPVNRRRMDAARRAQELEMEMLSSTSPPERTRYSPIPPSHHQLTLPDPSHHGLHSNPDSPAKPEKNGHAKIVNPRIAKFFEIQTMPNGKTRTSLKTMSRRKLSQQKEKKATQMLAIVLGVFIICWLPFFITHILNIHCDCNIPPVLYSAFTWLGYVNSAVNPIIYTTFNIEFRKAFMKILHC

D(3) dopamine receptor, sequence (P19020 whole entry): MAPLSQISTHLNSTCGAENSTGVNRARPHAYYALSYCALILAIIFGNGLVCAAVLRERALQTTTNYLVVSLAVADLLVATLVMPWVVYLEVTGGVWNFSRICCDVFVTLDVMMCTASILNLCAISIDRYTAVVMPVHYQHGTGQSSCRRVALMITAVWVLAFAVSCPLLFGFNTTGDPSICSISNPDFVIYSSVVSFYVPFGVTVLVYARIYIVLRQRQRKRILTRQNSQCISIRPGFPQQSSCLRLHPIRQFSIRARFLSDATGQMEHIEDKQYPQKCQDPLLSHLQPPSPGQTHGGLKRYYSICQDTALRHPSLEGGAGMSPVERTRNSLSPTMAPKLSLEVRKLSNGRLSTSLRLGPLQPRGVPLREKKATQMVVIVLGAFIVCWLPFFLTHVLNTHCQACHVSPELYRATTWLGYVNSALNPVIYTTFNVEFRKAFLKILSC

**Q.** What does the source list for `CCCN(CCC)C1C=Cc2c(OC)cccc2C1C` (stereo unspecified) [CAS_5311190]?
**A.** Ki [1]: 0.0092 µM; Ki [2]: 0.04 µM

**Q.** How did the Ki [1] turn out when `Nc1nc2c(ncn2[C@@H]2O[C@H](COP(=O)(O)OP(=O)(O)NP(=O)(O)O)[C@@H](O)[C@H]2O)c(=O)[nH]1` [Guanylyl imidodiphosphate] was run?
**A.** 0.027 µM

**Q.** What about the Ki [2] of the same molecule?
**A.** 1.7 µM

**Q.** For `CCS(=O)(=O)c1cc(C(=O)NCC2CCCN2CC2CC2)c(OC)cc1I` (stereo unspecified) [NSC_122245], which Ki [1] is on record?
**A.** 0.0012 µM

**Q.** What about the Ki [2] of the same molecule?
**A.** 0.00061 µM
